The results in this text go back to paper PMC6934184, “Selective DNA-PKcs inhibition extends the therapeutic index of localized radiotherapy and chemotherapy” (The Journal of Clinical Investigation, 2019).

The target of this test is T1, TEK (Tie2) (Homo sapiens, UniProt Q02763).
T1 construct: purchased Thermo Fisher Scientific (Life Technologies) SelectScreen
The test can be described thus: SelectScreen Z'LYTE. In kind it is biochemical. In a few lines:
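Percent values come from Thermo SelectScreen profiling of NU5455, combining activity and binding assays. CSF1R was run in Z'LYTE format at Km app ATP, and CAMK1 in Adapta format with ATP listed at 10.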

In general, inhibition refers to the change of the read-out against control, counted positive when it falls.

T1 sequence (Q02763 23-1124): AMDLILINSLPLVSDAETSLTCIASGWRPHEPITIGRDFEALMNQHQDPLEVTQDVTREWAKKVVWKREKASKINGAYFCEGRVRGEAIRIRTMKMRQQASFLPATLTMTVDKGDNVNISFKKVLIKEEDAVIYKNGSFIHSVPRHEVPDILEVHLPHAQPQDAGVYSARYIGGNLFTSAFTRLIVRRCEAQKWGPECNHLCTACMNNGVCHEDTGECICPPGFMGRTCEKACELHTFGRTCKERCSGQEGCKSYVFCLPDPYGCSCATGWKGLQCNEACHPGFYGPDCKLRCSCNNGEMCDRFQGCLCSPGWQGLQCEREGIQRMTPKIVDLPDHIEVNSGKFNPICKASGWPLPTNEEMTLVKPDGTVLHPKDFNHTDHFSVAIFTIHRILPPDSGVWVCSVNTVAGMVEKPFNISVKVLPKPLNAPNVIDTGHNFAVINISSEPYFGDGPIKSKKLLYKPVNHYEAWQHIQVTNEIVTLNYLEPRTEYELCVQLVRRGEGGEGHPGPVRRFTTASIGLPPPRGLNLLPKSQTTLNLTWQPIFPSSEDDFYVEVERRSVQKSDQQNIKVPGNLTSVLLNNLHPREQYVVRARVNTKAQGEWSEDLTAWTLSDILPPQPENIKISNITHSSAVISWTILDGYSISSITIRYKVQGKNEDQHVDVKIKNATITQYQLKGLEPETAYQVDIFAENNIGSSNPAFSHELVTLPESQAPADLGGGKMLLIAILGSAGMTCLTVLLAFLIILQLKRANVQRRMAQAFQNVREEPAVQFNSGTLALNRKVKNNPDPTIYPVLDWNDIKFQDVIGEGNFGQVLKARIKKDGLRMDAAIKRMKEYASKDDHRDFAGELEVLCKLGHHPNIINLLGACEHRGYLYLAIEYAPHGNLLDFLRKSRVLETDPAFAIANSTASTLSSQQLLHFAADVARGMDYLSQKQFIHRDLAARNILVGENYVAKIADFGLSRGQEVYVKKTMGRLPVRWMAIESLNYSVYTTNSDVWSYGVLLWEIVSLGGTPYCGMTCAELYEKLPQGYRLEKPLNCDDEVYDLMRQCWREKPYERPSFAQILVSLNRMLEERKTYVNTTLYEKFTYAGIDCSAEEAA

In the case of `CN(C(=O)CN1CCOCC1)c1ccc2sc3c(-c4cccc5c(=O)cc(N6CC7CCC(C6)O7)oc45)cccc3c2c1` [NU5455], the inhibition at 1 µM was -0.1%.
